Where “and” joins values, the source holds several entries; their conditions need not be identical. Equal values may be shown once.
Key:
[1] = system: patients having lower urinary tract disorders; experiment: Placebo-controlled double-blind comparative study: adverse events and adverse drug reactions; format: in vivo, human
Experimental: (§1) Patients having detrusor underactivity (DU) and at least one voiding symptom associated with DU, such as abdominal straining to void, slow urinary stream, intermittent stream, residual urine, and reduced voiding efficiency, were used as subjects. Using such subjects, a placebo-controlled double-blind comparative study was performed to examine the effectiveness and safety of Compound 1 (this test was performed using patients also having overactive bladder as subjects). Under double-blind conditions (in which neither the doctor who prescribed the drug nor the patients knew which drug was administered to each patient), 200 mg of Compound 1 or a placebo was orally administered twice a day after a meal for 12 weeks to evaluate the effectiveness and safety of Compound 1.
To study the safety of Compound 1 in patients having lower urinary tract disorders, adverse events (any unfavorable medical event that occurred in patients who participated in this study; whether or not there is a causal relationship with the active ingredient) and adverse drug reactions (adverse events that are determined to “have a reasonable possibility” of a causal relationship with the drug) were measured.

[2] = system: patients having detrusor underactivity (DU); experiment: Placebo-controlled double-blind comparative study: bladder voiding efficiency (BVE); format: in vivo, human; details: for BVE, Value at Week 12, Mean(S.D.) / BVE, Change from Baseline at Week 12, Mean(S.D.): 200 mg orally twice a day for 12 weeks, FAS; for BVE change, Mean Difference = Compound 1-Placebo: Week 12; for Effect on voiding efficiency (in words): 12 weeks
Experimental: as §1
To evaluate the effectiveness, BVE (bladder voiding efficiency) was evaluated. BVE (%) was calculated by the following formula:
Voided volume/(Voided volume+Residual urine volume)×100.
The voided volume refers to the amount of urine per urination. The residual urine volume refers to the amount of urine that resides in the bladder as measured by transabdominal ultrasonography after completion of urination. The difference between the baseline (before administration) and the measurement value after 12 weeks of the administration was evaluated by using a paired t-test, whereas the difference in amount of BVE variation between the Compound 1 group and the placebo group was evaluated by using Student's t-test.

[3] = 200 mg orally twice a day for 12 weeks, All Treated Patients, N=52
[4] = patients with a residual urine volume of 50 mL or more, N=29
[5] = patients with a residual urine volume of 100 mL or more, N=19
[6] = patients with a residual urine volume of less than 50 mL, N=19

## CC1=C(CCCCCCCCCCCCCCCO)C(C)(C)CCC1=O [Compound 1, 3-(15-hydroxypentadecyl)-2,4,4-trimethyl-2-cyclohexen-1-one]
[1]; [3]
  Adverse Drug Reactions, N (patients): 0
  Adverse Drug Reactions, incidence: 0.0%
  Adverse Events, N (patients): 24
  Adverse Events, incidence: 46.2%
[1]; oral administration of 200 mg twice a day for 12 weeks
  Safety and tolerability (in words): well tolerated
[2]; entire group of patients having lower urinary tract disorders, N=48
  BVE, Value at Week 12, Mean(S.D.): 66.79 (27.04) %
[2]; entire group of patients, N=48
  BVE, Change from Baseline at Week 12, Mean(S.D.): 10.91% and 10.91 (26.48) %
[2]; entire group of patients, Student's t-test p=0.178
  BVE change, Mean Difference = Compound 1-Placebo: 8.49%
[2]; patients with a residual urine volume of 50 mL or more or of 100 mL or more
  Effect on voiding efficiency (in words): significantly increased the voiding efficiency
[2]; [4]
  BVE, Change from Baseline at Week 12, Mean(S.D.): 18.41% and 18.41 (24.39) %
  BVE, Value at Week 12, Mean(S.D.): 61.66 (30.45) %
[2]; patients with a residual urine volume of 50 mL or more, Student's t-test p=0.031
  BVE change, Mean Difference = Compound 1-Placebo: 15.53%
[2]; [5]
  BVE, Change from Baseline at Week 12, Mean(S.D.): 23.57% and 23.57 (25.54) %
  BVE, Value at Week 12, Mean(S.D.): 54.71 (33.78) %
[2]; patients with a residual urine volume of 100 mL or more, Student's t-test p=0.025
  BVE change, Mean Difference = Compound 1-Placebo: 21.47%
[2]; [6]
  BVE, Change from Baseline at Week 12, Mean(S.D.): −0.55 (25.99) %
  BVE, Value at Week 12, Mean(S.D.): 74.62 (18.94) %
[2]; patients with a residual urine volume of less than 50 mL
  Effect on voiding efficiency (in words): did not significantly increase the voiding efficiency
[2]; patients with a residual urine volume of less than 50 mL, Student's t-test p=0.853
  BVE change, Mean Difference = Compound 1-Placebo: −2.09%

— patent US20230255903A1, “URINARY SYMPTOM THERAPEUTIC AGENT” (TAIHO PHARMACEUTICAL CO., LTD., priority 2020, published 2023)
